Data: patent US8741889B2, “Method of treating non-small cell lung cancer and colon cancer with gamma-secretase inhibitor” (Hoffmann-La Roche Inc, priority 2008, dated 2014)

How the values were obtained:
[1] = mouse, in vivo, 10 mg/kg
Procedure: Treatment for the MiaPaca2 study began on Feb. 8, 2007 (day 17 post tumor implant), for AsPC1 on Mar. 23, 2007 (day 9 post tumor implant), and for the BxPC3 study on May 30, 2007 (day 8 post tumor implant). Oral vehicle or the Compound (1) suspension was dosed using a sterile 1 cc syringe and 18-gauge gavage needle (0.2 ml/animal) once daily (qd) for 21-28 days, or using an intermittent schedule (7 days on, 7 days off, 7 days on (7+/7−/7+), 7 days on, 7 days off (7+/7−), 3 days on, 4 days off (3+/4−), or 14 days on, 14 days off (14+/14−)). Gemcitabine was administered to the mice intraperitoneally (ip) q3d (every 3 days) using a 1 cc syringe and 26 gauge needle.
(§1) Weight loss was graphically represented as percent change in mean group body weight, using the formula: ((W−W0)/W0)×100, where ‘W’ represents mean body weight of the treated group at a particular day, and ‘W0’ represents mean body weight of the same treated group at initiation of treatment.

in vivo = assay: in vivo
Procedure: Treatment began on Sep. 12, 2006 (day 26 post tumor cell implant). Compound (1) and vehicle were dosed as a suspension using a sterile 1 cc syringe and 18-gauge gavage needle (0.2 ml/animal) once (qd) or twice per day (bid) 8 hours apart for either 7, 14 or 21 days out of a 21 day schedule. For animals dosed for 7 days (7+/14−), treatment ended on Sep. 19, 2006 (day 33 post tumor cell implant). These mice were re-treated on day 67 with the same dose of compound (1) for another 7 days until day 74. For animals dose for 14 days (14+/7−) treatment ended on Sep. 26, 2006 (day 40 post tumor cell implant), and for animals dosed for 21 days, treatment ended on Oct. 3, 2006 (day 47 post tumor cell implant).
as §1

H460a NSCLC xenografts = assay: Antitumor efficacy in H460a NSCLC xenografts in nude mice; assay type: in vivo
Procedure: Female nude mice (10/group), obtained from Charles River Laboratories (Wilmington, Mass.) were used when they were approximately 13-14 weeks old and weighed approximately 23-25 grams. The health of all animals was determined daily by gross observation of experimental animals and by the analyses of blood samples of sentinel animals that were housed on the shared shelf racks. All animals were allowed to acclimate and recover from any shipping related stress for a minimum of 72 hours prior to experimental use. Autoclaved water and irradiated food [5058-ms Pico chow (mouse) Purina, Richmond, Ind.] were provided ad libitum, and the animals were maintained on a 12-hour light and dark cycle. Cages, bedding and water bottles were autoclaved before use and were changed weekly. Lovo human colorectal, Calu-6 NSCLC, and HCT116 colorectal cells were purchased from ATCC (Manassas, Va.). […] NSCLC cells were a gift from Dr. Jack Roth, MD Anderson Medical Center, Houston, Tex. Lovo cells were cultured in F12K culture medium, Calu-6 and […] were grown in Dulbecco's Modified Essential Medium (DMEM), and HCT116 cells were grown in McCoy's 5A medium. All culture media were supplemented with 10% (v/v) FBS and 1% (v/v) […] L-glutamine. […] Mice implanted with Lovo and Calu-6 xenografts were randomized on day 19 post-implant, mice implanted with HCT116 xenografts were randomized on day 20, while mice implanted with […] xenografts were randomized on day 12 post implant. […] Treatment for the Lovo and Calu-6 tumor studies began on Oct. 11, 2006 (day 19 post tumor cell implant), for the HCT116 study began on Oct. 16, 2006 (day 20 post tumor cell implant), and for the […] study on Oct. 11, 2006 (12 days post tumor cell implant). […] For the Lovo and Calu-6 studies, 21 day dosing ended on day 40 post-tumor cell implant. For intermittent dosing, treatment ended on day 26, was reinitiated on day 40, and ended day 47. For the HCT116 study, 21 day dosing ended on day 42 post tumor cell implant. Intermittent dosing ended on day 27, was reinitiated on day 42, and ended day 49. For the […] study, 21 day dosing ended early on day 27 post tumor cell implant, whereas for intermittent dosing, treatment ended day 19, and was not reinitiated (due to lack of efficacy). Efficacy data was graphically represented as the mean tumor volume ±standard error of the mean (SEM). […] Statistical analysis was determined by the rank sum test and One Way Anova and a post-hoc Bonferroni t-test (SigmaStat, version 2.0, Jandel Scientific, San Francisco, Calif.). […]

[2] = nude, mouse, in vivo, maximum tolerated dose (MTD)

SMILES: CC(C)(C(=O)NCC(F)(F)C(F)(F)F)C(=O)N[C@@H]1C(=O)Nc2ccccc2-c2ccccc21 [Compound (1), 2,2-Dimethyl-N—((S)-6-oxo-6,7-dihydro-5H-dibenzo[b,d]azepin-7-yl)-N′-(2,2,3,3,3-pentafluoro-propyl)-malonamide]
- mice with >20% body weight loss deemed toxicity-related [1]: one
- animal deaths (in vivo; 30 mg/kg bid for 21 days, 10/group): two
- mice died (in vivo; 60 mg/kg bid for 14 days, 10/group): four
- mice died (in vivo; 60 mg/kg bid for 21 days, 10/group): seven
- mice died (in vivo; 60 mg/kg qd for 21 days, 10/group): three
- maximum tolerated dose (MTD) (in vivo; nude, mouse, in vivo, 21 days): 10 mg/kg
- MTD at 7 days (in vivo; [2]): 60 mg/kg
- MTD at 14 days (in vivo; [2]): 30 mg/kg
- % TGI (H460a NSCLC xenografts; 3 mg/kg po qd, dosing ended early): 0%
- % TGI (H460a NSCLC xenografts; 10 mg/kg po qd, dosing ended early): 0%
- % TGI (H460a NSCLC xenografts; 30 mg/kg po qd × 7 days, not reinitiated): 0%
- % TGI (H460a NSCLC xenografts; 60 mg/kg po qd × 7 days, not reinitiated): 0%
